The record followed here is patent US20250282768A1 (Janssen Pharmaceutica NV, priority 2022, published 2025).

Each structure is given as a SMILES string.

In this assay the test system is p-IKKa levels in L363 (NIK translocated multiple myeloma) cells. In words: Assay 2: Effect of compounds on p-IKKa levels in L363 (NIK translocated multiple myeloma) cells. Type of assay: cell-based. The following applies: Homo sapiens, L-363, 6 h, read-out: Assay 2 IC50 (nM), p-IKKa (Ser 176/180) in BAFF stimulated L363 cells with MG132, 6 h; average if tested more than once. In a few lines:
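L363 cells incubated overnight ± 250 ng/ml BAFF, then 6 h at 37 °C with compound (0.3% DMSO) ± 10 μM MG132. Lysates assayed for p-IKKa (Ser176/180) by AlphaLISA SureFire. IC50 from sigmoidal fit of % inhibition normalized to BAFF/MG132-stimulated and unstimulated controls.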

Take `CN1CC[C@@](O)(c2cc(-c3cccc(-c4ccnc(Nc5nnn(C)n5)n4)n3)no2)C1=O` [Example 267, (R)-3-Hydroxy-1-methyl-3-(3-(6-(2-((2-methyl-2H-tetrazol-5-yl)amino)pyrimidin-4-yl)pyridin-2-yl)isoxazol-5-yl)pyrrolidin-2-one]: the IC50 was in the range of 50 to 500 nM.

`Cc1ccc(O)c(Nc2nccc(-c3cccc(-c4cc([C@]5(O)CCN(C)C5=O)on4)n3)n2)n1` [Example 268, (R)-3-Hydroxy-3-(3-(6-(2-((3-hydroxy-6-methylpyridin-2-yl)amino)pyrimidin-4-yl)pyridin-2-yl)isoxazol-5-yl)-1-methylpyrrolidin-2-one]: the IC50 is above 500 nM.

With `Cc1c(Nc2nccc(-c3cccc(-c4cc([C@]5(O)CCN(C)C5=O)on4)n3)n2)cnn1CC(C)(C)O` [Example 269, (R)-3-Hydroxy-3-(3-(6-(2-((1-(2-hydroxy-2-methylpropyl)-5-methyl-1H-pyrazol-4-yl)amino)pyrimidin-4-yl)pyridin-2-yl)isoxazol-5-yl)-1-methylpyrrolidin-2-one], the IC50 is below 50 nM.

Regarding `CN1CC[C@@](O)(c2cc(-c3cccc(-c4ccnc(Nc5ccn(CC6CCOCC6)n5)n4)n3)no2)C1=O` [Example 270, (R)-3-Hydroxy-1-methyl-3-(3-(6-(2-((1-((tetrahydro-2H-pyran-4-yl)methyl)-1H-pyrazol-3-yl)amino)pyrimidin-4-yl)pyridin-2-yl)isoxazol-5-yl)pyrrolidin-2-one], the IC50 was below 50 nM.

`COCc1nc(Nc2nccc(-c3cccc(-c4cc([C@]5(O)CCN(C)C5=O)on4)n3)n2)n(C)n1` [Example 271, (R)-3-Hydroxy-3-(3-(6-(2-((3-(methoxymethyl)-1-methyl-1H-1,2,4-triazol-5-yl)amino)pyrimidin-4-yl)pyridin-2-yl)isoxazol-5-yl)-1-methylpyrrolidin-2-one]: the IC50 is above 500 nM.

Consider `Cc1ccn2cnnc2c1Nc1nccc(-c2cccc(-c3cc([C@]4(O)CCN(C)C4=O)on3)n2)n1` [Example 273, (R)-3-Hydroxy-1-methyl-3-(3-(6-(2-((7-methyl-[1,2,4]triazolo[4,3-a]pyridin-8-yl)amino)pyrimidin-4-yl)pyridin-2-yl)isoxazol-5-yl)pyrrolidin-2-one], for which the IC50 was above 500 nM.

Take `CN(C)Cc1ccc(Nc2nccc(-c3cccc(-c4cc([C@]5(O)CCN(C)C5=O)on4)n3)n2)nc1` [Example 274, (R)-3-(3-(6-(2-((5-((Dimethylamino)methyl)pyridin-2-yl)amino)pyrimidin-4-yl)pyridin-2-yl)isoxazol-5-yl)-3-hydroxy-1-methylpyrrolidin-2-one]: the IC50 fell in the range of 50 to 500 nM.

Turning to `CCn1ncnc1Nc1nccc(-c2cccc(-c3cc([C@]4(O)CCN(C)C4=O)on3)n2)n1` [Example 276, (R)-3-(3-(6-(2-((1-Ethyl-1H-1,2,4-triazol-5-yl)amino)pyrimidin-4-yl)pyridin-2-yl)isoxazol-5-yl)-3-hydroxy-1-methylpyrrolidin-2-one], the IC50 was above 500 nM.

With `CN(C)C(=O)Cn1ccc(Nc2nccc(-c3cccc(-c4cc([C@]5(O)CCN(C)C5=O)on4)n3)n2)n1` [Example 277, (R)-2-(3-((4-(6-(5-(3-Hydroxy-1-methyl-2-oxopyrrolidin-3-yl)isoxazol-3-yl)pyridin-2-yl)pyrimidin-2-yl)amino)-1H-pyrazol-1-yl)-N,N-dimethylacetamide], the IC50 lay within 50 to 500 nM.

In the case of `Cc1nn(CCN(C)C)c(C)c1Nc1nccc(-c2cccc(-c3cc([C@]4(O)CCN(C)C4=O)on3)n2)n1` [Example 278, (R)-3-(3-(6-(2-((1-(2-(Dimethylamino)ethyl)-3,5-dimethyl-1H-pyrazol-4-yl)amino)pyrimidin-4-yl)pyridin-2-yl)isoxazol-5-yl)-3-hydroxy-1-methylpyrrolidin-2-one], the IC50 was above 500 nM.

Turning to `CN1CC[C@@](O)(c2cc(-c3cccc(-c4ccnc(Nc5cc(Cl)n(C)n5)n4)n3)no2)C1=O` [Example 279, (R)-3-(3-(6-(2-((5-Chloro-1-methyl-1H-pyrazol-3-yl)amino)pyrimidin-4-yl)pyridin-2-yl)isoxazol-5-yl)-3-hydroxy-1-methylpyrrolidin-2-one], the IC50 was in the range of 50 to 500 nM.

Consider `CN1CC[C@@](O)(c2cc(-c3cccc(-c4ccnc(Nc5cc(CO)n(C)n5)n4)n3)no2)C1=O` [Example 280, (R)-3-Hydroxy-3-(3-(6-(2-((5-(hydroxymethyl)-1-methyl-1H-pyrazol-3-yl)amino)pyrimidin-4-yl)pyridin-2-yl)isoxazol-5-yl)-1-methylpyrrolidin-2-one], for which the IC50 lay within 50 to 500 nM.

As for `CN1CC[C@@](O)(c2cc(-c3cccc(-c4ccnc(Nc5ccnnc5)n4)n3)no2)C1=O` [Example 281, (R)-3-Hydroxy-1-methyl-3-(3-(6-(2-(pyridazin-4-ylamino)pyrimidin-4-yl)pyridin-2-yl)isoxazol-5-yl)pyrrolidin-2-one], the IC50 was above 500 nM.

Turning to `Cc1cc(Nc2nccc(-c3cccc(-c4cc([C@]5(O)CCN(C)C5=O)on4)n3)n2)nn1C` [Example 282, (R)-3-(3-(6-(2-((1,5-Dimethyl-1H-pyrazol-3-yl)amino)pyrimidin-4-yl)pyridin-2-yl)isoxazol-5-yl)-3-hydroxy-1-methylpyrrolidin-2-one], the IC50 was below 50 nM.

With `Cc1cc(Nc2nccc(-c3cccc(-c4cc([C@]5(O)CCN(C)C5=O)on4)n3)n2)cc(C)n1` [Example 283, (R)-3-(3-(6-(2-((2,6-Dimethylpyridin-4-yl)amino)pyrimidin-4-yl)pyridin-2-yl)isoxazol-5-yl)-3-hydroxy-1-methylpyrrolidin-2-one], the IC50 is below 50 nM.

`COc1ccc(Nc2nccc(-c3cccc(-c4cc([C@]5(O)CCN(C)C5=O)on4)n3)n2)cn1` [Example 285, (R)-3-Hydroxy-3-(3-(6-(2-((6-methoxypyridin-3-yl)amino)pyrimidin-4-yl)pyridin-2-yl)isoxazol-5-yl)-1-methylpyrrolidin-2-one]: the IC50 was below 50 nM.

On to `C[C@@H]1C[C@@](O)(c2cc(-c3cccc(-c4ccnc(Nc5cnn(C)c5)n4)n3)no2)C(=O)N1C` [Example 286, (3R,5R)-3-Hydroxy-1,5-dimethyl-3-(3-(6-(2-((1-methyl-1H-pyrazol-4-yl)amino)pyrimidin-4-yl)pyridin-2-yl)isoxazol-5-yl)pyrrolidin-2-one], for which the IC50 was above 500 nM.

Regarding `CN1C(=O)[C@](O)(c2cc(-c3cccc(-c4ccnc(Nc5cnn(C)c5Cl)n4)n3)no2)[C@H]2C[C@H]21` [Example 287, (1R,4R,5S)-4-(3-(6-(2-((5-Chloro-1-methyl-1H-pyrazol-4-yl)amino)pyrimidin-4-yl)pyridin-2-yl)isoxazol-5-yl)-4-hydroxy-2-methyl-2-azabicyclo[3.1.0]hexan-3-one], the IC50 lay in the range of 50 to 500 nM.

Take `COc1cncc(Nc2nccc(-c3cccc(-c4cc([C@]5(O)CCN(C)C5=O)on4)n3)n2)c1` [Example 288, (R)-3-Hydroxy-3-(3-(6-(2-((5-methoxypyridin-3-yl)amino)pyrimidin-4-yl)pyridin-2-yl)isoxazol-5-yl)-1-methylpyrrolidin-2-one]: the IC50 was below 50 nM.

Regarding `Cc1nn(C)c(C)c1Nc1nccc(-c2cccc(-c3cc([C@]4(O)CCN(C)C4=O)on3)n2)n1` [Example 289, (R)-3-Hydroxy-1-methyl-3-(3-(6-(2-((1,3,5-trimethyl-1H-pyrazol-4-yl)amino)pyrimidin-4-yl)pyridin-2-yl)isoxazol-5-yl)pyrrolidin-2-one], the IC50 was above 500 nM.

As to `CN1CC[C@@](O)(c2cc(-c3cccc(-c4ccnc(Nc5ccncc5C#N)n4)n3)no2)C1=O` [Example 290, (R)-4-((4-(6-(5-(3-Hydroxy-1-methyl-2-oxopyrrolidin-3-yl)isoxazol-3-yl)pyridin-2-yl)pyrimidin-2-yl)amino)nicotinonitrile], the IC50 was 50 to 500 nM.

Consider `Cc1ncc(Nc2nccc(-c3cccc(-c4cc([C@]5(O)CCN(C)C5=O)on4)n3)n2)cn1` [Example 291, (R)-3-Hydroxy-1-methyl-3-(3-(6-(2-((2-methylpyrimidin-5-yl)amino)pyrimidin-4-yl)pyridin-2-yl)isoxazol-5-yl)pyrrolidin-2-one], for which the IC50 is 50 to 500 nM.

In the case of `CN1CC[C@@](O)(c2cc(-c3cccc(-c4ccnc(Nc5cncc(C#N)c5)n4)n3)no2)C1=O` [Example 292, (R)-5-((4-(6-(5-(3-Hydroxy-1-methyl-2-oxopyrrolidin-3-yl)isoxazol-3-yl)pyridin-2-yl)pyrimidin-2-yl)amino)nicotinonitrile], the IC50 is below 50 nM.

`Cc1cc(Nc2nccc(-c3cccc(-c4cc([C@]5(O)CCN(C)C5=O)on4)n3)n2)c(F)cn1` [Example 293, (R)-3-(3-(6-(2-((5-Fluoro-2-methylpyridin-4-yl)amino)pyrimidin-4-yl)pyridin-2-yl)isoxazol-5-yl)-3-hydroxy-1-methylpyrrolidin-2-one]: the IC50 was below 50 nM.

As for `CN1CC[C@@](O)(c2cc(-c3cccc(-c4ccnc(Nc5ccnc(C(F)F)c5)n4)n3)no2)C1=O` [Example 294, (R)-3-(3-(6-(2-((2-(Difluoromethyl)pyridin-4-yl)amino)pyrimidin-4-yl)pyridin-2-yl)isoxazol-5-yl)-3-hydroxy-1-methylpyrrolidin-2-one], the IC50 was below 50 nM.

In the case of `CN1CC[C@@](O)(c2cc(-c3cccc(-c4ccnc(Nc5cc(F)n(C)n5)n4)n3)no2)C1=O` [Example 295, (R)-3-(3-(6-(2-((5-Fluoro-1-methyl-1H-pyrazol-3-yl)amino)pyrimidin-4-yl)pyridin-2-yl)isoxazol-5-yl)-3-hydroxy-1-methylpyrrolidin-2-one], the IC50 is below 50 nM.

Take `CN1CC[C@@](O)(c2cc(-c3cccc(-c4ccnc(Nc5cn(C)nc5Cl)n4)n3)no2)C1=O` [Example 296, (R)-3-(3-(6-(2-((3-Chloro-1-methyl-1H-pyrazol-4-yl)amino)pyrimidin-4-yl)pyridin-2-yl)isoxazol-5-yl)-3-hydroxy-1-methylpyrrolidin-2-one]: the IC50 was below 50 nM.
